In paper PMC4553411, “Identification of B6T173 (ZmPrx35) as the prevailing peroxidase in highly insect-resistant maize (Zea mays, p84C3) kernels by activity-directed purification” (Frontiers in Plant Science, 2015):

Molecular target: T1, B6T173 (ZmPrx35) (Zea mays, UniProt B6T173)
T1 construct: recombinant from p84C3 cDNA, amplified from start codon to stop codon, pET19b (His-tag), E. coli BL21 (DE3) Rosetta gami; class III peroxidase
Experiment: in-gel guaiacol-H2O2 activity staining of IMAC fractions
Assay type: biochemical
Settings: H2O2 co-substrate; 20 mM guaiacol, 50 mM phosphate pH 6.8

T1 sequence (B6T173 1-339): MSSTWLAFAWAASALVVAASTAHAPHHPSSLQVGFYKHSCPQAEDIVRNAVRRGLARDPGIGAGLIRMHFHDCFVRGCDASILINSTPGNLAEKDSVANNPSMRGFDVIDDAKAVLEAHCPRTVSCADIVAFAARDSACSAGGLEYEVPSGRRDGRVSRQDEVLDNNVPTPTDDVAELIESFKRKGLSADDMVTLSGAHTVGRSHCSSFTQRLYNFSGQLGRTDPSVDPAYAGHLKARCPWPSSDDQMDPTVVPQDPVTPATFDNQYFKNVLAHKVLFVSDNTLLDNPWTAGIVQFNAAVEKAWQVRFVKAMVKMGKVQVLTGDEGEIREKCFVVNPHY

## COc1ccccc1O [guaiacol]
  in-gel guaiacol-H2O2 activity staining of IMAC fractions: Guaiacol-H2O2 staining of the same POD fractions
